Patent US8487103B2 (Roche Palo Alto LLC, priority 2009, dated 2013)
pIC50: −log10 of the molar value.

Target: T1, HCV polymerase (NS5B570n-Con1) (Hepatitis C virus genotype 1b, UniProt Q9WMX2)
T1 construct: contains a 21 amino acid deletion at the C-terminus relative to the full-length HCV polymerase; 6-histidine (N); made in house; host or cells: E. coli BL21(DE) pLysS, plasmid pET 17b
Experiment: HCV NS5B RNA Polymerase Activity
Type: biochemical, HCV Con1 strain
Experimental: The enzymatic activity of HCV polymerase (NS5B570n-Con1) was measured as the incorporation of radiolabeled nucleotide monophosphates into acid insoluble RNA products. Unincorporated radiolabeled substrate was removed by filtration and scintillant was added to the washed and dried filter plate containing radiolabeled RNA product. The amount of RNA product generated by NS5B570-Con1 at the end of the reaction was directly proportional to the amount of light emitted by the scintillant.
The N-terminal 6-histidine tagged HCV polymerase, derived from HCV Con1 strain, genotype 1b (NS5B570n-Con1) contains a 21 amino acid deletion at the C-terminus relative to the full-length HCV polymerase and was purified from E. coli strain BL21(DE) pLysS. The construct, containing the coding sequence of HCV NS5B Con1 (GenBank accession number AJ242654) was inserted into the plasmid construct pET 17b, downstream of a T7 promoter expression cassette and transformed into E. coli. A single colony was grown overnight as a starter culture and later used inoculate 10 L of LB media supplemented with 100 μg/mL ampicillin at 37° C. Protein expression was induced by the addition of 0.25 mM isopropyl-β-D-thiogalactopyranoside (IPTG) when optical density at […] of the culture was between 0.6 and 0.8 and cells were harvested after 16 to 18 h at 30° C. NS5B570n-Con1 was purified to homogeneity using a three-step protocol including subsequent column chromatography on Ni-NTA, SP-Sepharose HP and Superdex 75 resins.
Each 50 μL enzymatic reaction contained 20 nM RNA template derived from the complementary sequence of the Internal Ribosome Entry Site (cIRES), 20 nM NS5B570n-Con1 enzyme, 0.5 μCi of tritiated UTP (Perkin Elmer catalog no. TRK-412; specific activity: 30 to 60 Ci/mmol; stock solution concentration from 7.5×10^−5 M to 20.6×10^−6 M), 1 μM each ATP, CTP, and GTP, 40 mM Tris-HCl pH 8.0, 40 mM NaCl, 4 mM DTT (dithiothreitol), 4 mM MgCl2, and 5 μl of compound serial diluted in DMSO. Reaction mixtures were assembled in 96-well filter plates (cat #MADVN0B, Millipore Co.) and incubated for 2 h at 30° C. Reactions were stopped by addition of 10% final (v/v) trichloroacetic acid and incubated for 40 min at 4° C. Reactions were filtered, washed with 8 reaction volumes of 10% (v/v) trichloroacetic acetic acid, 4 reaction volumes of 70% (v/v) ethanol, air dried, and 25 μl of scintillant (Microscint 20, Perkin-Elmer) was added to each reaction well.
The amount of light emitted from the scintillant was converted to counts per minute (CPM) on a Topcount® plate reader (Perkin-Elmer, Energy Range: Low, Efficiency Mode Normal, Count Time: 1 min, Background Subtract: none, Cross talk reduction: Off).
Data was analyzed in Excel® (Microsoft) and ActivityBase® (Idbs®). The reaction in the absence of enzyme was used to determine the background signal, which was subtracted from the enzymatic reactions. Positive control reactions were performed in the absence of compound, from which the background corrected activity was set as 100% polymerase activity. All data was expressed as a percentage of the positive control. The compound concentration at which the enzyme-catalyzed rate of RNA synthesis was reduced by 50% (IC50) was calculated by fitting equation (i) to the data where“Y”
[formula] corresponds to the relative enzyme activity (in %), “% Min” is the residual relative activity at saturating compound concentration, “% Max” is the relative maximum enzymatic activity, “X” corresponds to the compound concentration, and “S” is the Hill coefficient (or slope).

Row | SMILES | pIC50
1 | CC(C)(C)c1cc(-c2ccc[nH]c2=O)c2ncc(-c3ccc(NS(C)(=O)=O)cc3F)nc2c1 [Compound I-8] | 8.40
2 | COc1ccc(-c2cc(C(C)(C)C)cc3nc(-c4ccc(NS(C)(=O)=O)cc4Cl)cnc23)c(=O)[nH]1 [Compound I-9] | 9.00
3 | Cc1nc2c(-c3ccc[nH]c3=O)cc(C(C)(C)C)cc2nc1-c1ccc(NS(C)(=O)=O)cc1 [Compound I-10, N-{4-[7-tert-Butyl-3-methyl-5-(2-oxo-1,2-dihydro-pyridin-3-yl)-quinoxalin-2-yl]-phenyl}-methanesulfonamide] | 7.68
4 | COc1ccc(-c2cc(C(C)(C)C)cc3nc(-c4ccc(NS(C)(=O)=O)cc4F)cnc23)c(=O)[nH]1 [Compound I-11] | 9.00
5 | COc1c(C(C)(C)C)cc(-c2ccc[nH]c2=O)c2ncc(-c3ccc(NS(C)(=O)=O)cc3)cc12 [Compound I-14, N-{4-[6-tert-Butyl-5-methoxy-8-(2-oxo-1,2-dihydro-pyridin-3-yl)-quinolin-3-yl]-phenyl}-methanesulfonamide] | 9.00
6 | COc1c(C(C)(C)C)cc(-c2cc(Cl)c[nH]c2=O)c2ncc(-c3ccc(NS(C)(=O)=O)cc3)cc12 [Compound I-15, N-{4-[6-tert-Butyl-8-(5-chloro-2-oxo-1,2-dihydro-pyridin-3-yl)-5-methoxy-quinolin-3-yl]-phenyl}-methanesulfonamide] | 9.00
7 | COc1c(C(C)(C)C)cc(-c2ccc[nH]c2=O)c2ncc(Br)cc12 [Compound I-16] | 7.23
8 | COc1c(C(C)(C)C)cc(-c2ccc[nH]c2=O)c2ncccc12 [Compound I-17] | 7.42
9 | COc1c(C(C)(C)C)cc(Br)c2ncc(-c3ccc(NS(C)(=O)=O)cc3)cc12 [Compound I-20] | 6.65
10 | COc1c(C(C)(C)C)cc(-c2ccc[nH]c2=O)c2ncc(N3CC(CNS(C)(=O)=O)C3)c(Cl)c12 [Compound I-22, N-{1-[6-tert-Butyl-4-chloro-5-methoxy-8-(2-oxo-1,2-dihydro-pyridin-3-yl)-quinolin-3-yl]-azetidin-3-ylmethyl}-methanesulfonamide] | 7.36
11 | COc1c(C(C)(C)C)cc(-c2cc(F)c[nH]c2=O)c2ncc(-c3ccc(NS(C)(=O)=O)cc3)cc12 [Compound I-23] | 9.00
12 | COc1c(C(C)(C)C)cc(-c2ccc(C)[nH]c2=O)c2ncc(-c3ccc(NS(C)(=O)=O)cc3)cc12 [Compound I-24] | 9.00
13 | COc1c(C(C)(C)C)cc(-c2c[nH]c(=O)[nH]c2=O)c2ncc(-c3ccc(NS(C)(=O)=O)cc3)cc12 [Compound I-25, N-{4-[6-tert-Butyl-8-(2,4-dioxo-1,2,3,4-tetrahydro-pyrimidin-5-yl)-5-methoxy-quinolin-3-yl]-phenyl}-methanesulfonamide] | 9.40
14 | COc1c(C(C)(C)C)cc(-c2ccncc2F)c2ncc(-c3ccc(NS(C)(=O)=O)cc3)cc12 [Compound I-26] | 9.00
15 | COc1c(C(C)(C)C)cc(N2CCCNC2=O)c2ncc(-c3ccc(NS(C)(=O)=O)cc3)cc12 [Compound I-27, N-{4-[6-tert-Butyl-5-methoxy-8-(2-oxo-tetrahydro-pyrimidin-1-yl)-quinolin-3-yl]-phenyl}-methanesulfonamide] | 9.15
16 | COc1c(C(C)(C)C)cc(N2CCC(=O)NC2=O)c2ncc(-c3ccc(NS(C)(=O)=O)cc3)cc12 [Compound I-28, N-{4-[6-tert-Butyl-8-(2,4-dioxo-tetrahydro-pyrimidin-1-yl)-5-methoxy-quinolin-3-yl]-phenyl}-methanesulfonamide] | 8.70
17 | COc1c(C(F)(F)F)cc(N2CCC(=O)NC2=O)c2ncc(-c3ccc(NS(C)(=O)=O)cc3)cc12 [Compound I-29, N-{4-[8-(2,4-Dioxo-tetrahydro-pyrimidin-1-yl)-5-methoxy-6-trifluoromethyl-quinolin-3-yl]-phenyl}-methanesulfonamide] | 8.74
